# According to patent US20130137573A1, “HERBICIDAL COMPOSITIONS COMPRISING, AND METHODS OF USE OF, HERBICIDALLY ACTIVE PYRANDIONES” (priority 2009, published 2013):
# Legend:
# [1] = tested on: Echinochloa crus-galli (ECHCG); experiment: Biological Example 1 (Test 125): visual herbicidal damage to flooded ECHCG; type: in vivo; details: 200 g/ha fenoxasulfone applied alone, 14 DAA
# Procedure: (§1) Rice seeds, variety IR-64 (an indica type of rice), were sown in seed trays. After 7 days the resulting plants were transplanted as 3 groups of 2 plants, into pots containing a standard sandy loam soil saturated with water replicating swampy conditions. These were grown on for a further 9 days in a glasshouse bay (30/20° C. day/night; 18/6 hours light/dark; 75% humidity). Leptochloa chinensis (LEFCH) and Echinochloa crus-galli (ECHCG) were sown as 2 separate groups of approx 10-20 seeds into pots 13 days prior to application of the test substances, in the same glasshouse conditions as the rice. Therefore, each pot of weeds contained a group of LEFCH and a separate group of ECHCG. All pots of rice and all pots of weeds were flooded to 2-3 cm water depth the day prior to application of the test substances. Growth stages at time of application were as follows: Rice: from 2 leaves on the main stem up to tillering; ECHCG: from 2 leaves on the main stem up to tillering; LEFCH: 2-3 leaves.
# Test solutions were prepared by mixing the appropriate aliquots of the test substances in deionised water to give the desired treatment concentration. Most of the test substances were used as formulated products. Specifically, compound A-13 was applied as the EC050 formulation disclosed in Formulation Example 1 herein (EC=emulsifiable concentrate). Reference compound A-4 was applied as the EC050 formulation disclosed in Reference Formulation Example 2 herein. Pyroxasulfone (a comparator co-herbicide) was applied as the SC050 formulation disclosed in Reference Formulation Example 6 herein (SC=Suspension concentrate). Imazosulfuron (a comparator co-herbicide) was applied as a GR0.25 formulation (GR=granule).
# The test substances which were pure active ingredient (e.g. propyrisulfuron & fenoxasulfone & compound A-16) (labelled as ‘Technical’ in the following results table), were prepared by dissolving in 10.56% Emulsogen EL™ (castor oil ethoxylate, CAS Registry number 61791-12-6), 42.22% N-methylpyrrolidone and 42.22% dipropylene glycol mono-ethyl ether to give a stock solution containing 5% of the test substance and 95% of (Emulsogen EL™, N-methylpyrrolidone and dipropylene glycol mono-ethyl ether).
# Application of the test substances was made by pipetting the required amount of the test solution or the test formulation gently into the flood water of the appropriate pot.
# The test plants were then grown on in the same glasshouse conditions, and watered twice daily keeping the flood water at a depth of 2-3 cm.
# A visual assessment of the % herbicidal damage was made 7 & 14 days after application […], and the results are presented herein as % visual herbicidal damage where 0=no damage to plants and 100=total kill.
# [2] = tested on: Leptochloa chinensis (LEFCH); experiment: Biological Example 1 (Test 125): visual herbicidal damage to flooded LEFCH; type: in vivo; details: 200 g/ha fenoxasulfone applied alone, 14 DAA
# Procedure: as §1
# Test solutions were prepared by mixing the appropriate aliquots of the test substances in deionised water to give the desired treatment concentration. Most of the test substances were used as formulated products. Specifically, compound A-13 was applied as the EC050 formulation disclosed in Formulation Example 1 herein (EC=emulsifiable concentrate). […]
compound,measurement,setting,value
"CCOc1cc(Cl)c(CS(=O)(=O)C2=NOC(C)(C)C2)cc1Cl [fenoxasulfone, reference compound]",ECHCG control,[1],65%
same,LEFCH control,[2],70%
